Experimental findings from patent US7449462B2, “Triazole derivatives which inhibit vasopressin antagonistic activity” (Pfizer, Inc., priority 2004, dated 2008) are described below.

This assay concerns the target T1, human V1A receptor (Homo sapiens, UniProt P37288).
T1 construct: expressed in transfected cells; host or cells: CHO cells (CHO-hV1A line provided by Marc Thibonnier, Case Western Reserve University)
The experiment in a line: V1A filter binding assay (screen 1.0), [3H]-AVP binding to CHO-hV1A membranes. Conditions: [3H]-AVP displacement, membranes of CHO cells stably expressing the human V1A receptor; Cheng-Prusoff. The protocol:
1.0 V1A Filter Binding Assay
Receptor binding assays were performed on cellular membranes prepared from CHO cells stably expressing the human V1A receptor, (CHO-hV1A). The CHO-hV1A cell line was kindly provided under a licensing agreement by Marc Thibonnier, Dept. of Medicine, Case Western Reserve University School of Medicine, Cleveland, Ohio. CHO-hV1A cells were routinely maintained at 37° C. in humidified atmosphere with 5% CO2 in DMEM/Hams F12 nutrient mix supplemented with 10% fetal bovine serum, 2 mM L-glutamine, 15 mM HEPES and 400 μg/ml G418. […] Confluent CHO-hV1A cells were washed with phosphate-buffered saline (PBS), harvested into ice cold PBS and centrifuged at 1,000 rpm. Cell pellets were stored at −80° C. until use. Cell pellets were thawed on ice and homogenised in membrane preparation buffer consisting of 50 mM Tris-HCl, pH 7.4, 5 mM MgCl2 and supplemented with a protease inhibitor cocktail, (Roche). […] The remaining pellet was homogenised and centrifuged as before. The supernatants were pooled and centrifuged at 25,000×g for 30 min at 4° C. The pellet was resuspended in freezing buffer consisting of 50 mM Tris-HCl, pH 7.4, 5 mM MgCl2 and 20% glycerol and stored in small aliquots at −80° C. until use. Protein concentration was determined using Bradford reagent and BSA as a standard. […]
Compounds were tested for their effects on [^3H]-AVP binding to CHO-hV1A membranes, (^3H-AVP; specific activity 65.5 Ci/mmol; NEN Life Sciences). […] The plates were sealed and counted on a TopCount Microplate Scintillation Counter (Packard Instruments). […] The radioligand binding data was analysed using a four parameter logistic equation with the min forced to 0%. […] Specific binding was calculated by subtracting the mean NSB cpm from the mean Total cpm. […] The inhibitory dissociation constant (Ki) was calculated using the Cheng-Prusoff equation: Ki=IC50/(1+[L]/Kd) where [L] is the concentration of ligand present in the well and Kd is the dissociation constant of the radioligand obtained from Scatchard plot analysis.

T1 sequence (P37288 whole entry): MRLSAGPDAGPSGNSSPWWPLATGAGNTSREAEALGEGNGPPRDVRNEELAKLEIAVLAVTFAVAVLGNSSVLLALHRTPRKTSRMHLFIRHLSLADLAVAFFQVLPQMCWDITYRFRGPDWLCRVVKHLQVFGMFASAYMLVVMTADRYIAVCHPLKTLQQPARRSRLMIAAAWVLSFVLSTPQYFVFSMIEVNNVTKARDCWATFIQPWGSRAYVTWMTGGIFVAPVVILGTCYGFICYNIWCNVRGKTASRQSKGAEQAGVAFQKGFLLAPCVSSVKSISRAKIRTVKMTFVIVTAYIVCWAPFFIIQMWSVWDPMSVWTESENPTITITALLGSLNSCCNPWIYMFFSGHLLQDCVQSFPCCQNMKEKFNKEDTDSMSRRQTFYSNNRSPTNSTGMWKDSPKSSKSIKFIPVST

For `Cc1cc(Cl)ccc1-n1c(C)nnc1C1CCN(c2ccccn2)CC1` [Example 9, 4-[4-(4-Chloro-2-methyl-phenyl)-5-methyl-4H-[1,2,4]triazol-3-yl]-3,4,5,6-tetrahydro-2H-[1,2′]bipyridinyl], the Ki was found to be 3.32 nM. The result for `Cc1cc(Cl)ccc1-n1c(Cn2nccn2)nnc1C1CCN(c2ccccn2)CC1` [Example 15, 4-[4-(4-Chloro-2-methyl-phenyl)-5-[1,2,3]triazol-2-ylmethyl-4H-[1,2,4]triazol-3-yl]-3,4,5,6-tetrahydro-2H-[1,2′]bipyridinyl] reads 0.86 nM; that for `Clc1ccc(-n2c(Cn3nccn3)nnc2C2CCN(c3ccccn3)CC2)cc1` [Example 17, 4-[4-(4-Chloro-phenyl)-5-[1,2,3]triazol-2-ylmethyl-4H-[1,2,4]triazol-3-yl]-3,4,5,6-tetrahydro-2H-[1,2′]bipyridinyl], 0.47 nM.

What is called Ki is the dissociation constant of the complex between target and ligand, obtained from inhibition or displacement. The low end stands for a stronger hold on the target, the high end for a looser hold on the target.
